Measurements from patent US9827265B1, “Method for attenuating free radical formation resulting from a bodily insult” (MD Scientific, LLC, priority 2012, dated 2017).
Like-named read-outs stand apart in the source and are kept apart here.

[1] = high risk subjects with injection of iodinated contrast in the cardiac arteries, total 1.96 mEq/kg, 40% prior to and 60% during and after the contrast, sodium concentration 154 mEq/L, death primarily from cardiac failure

Row | SMILES | incidence of death [1] [%] | incidence of death (subjects with other types of iodinated contrast injection (other non-cardiac arteries), compared between both study cohorts)
1 | O=C([O-])O.[Na+] [sodium bicarbonate solution, sodium bicarbonate] | 3.2 | same incidence of death in both study cohorts
2 | [Cl-].[Na+] [sodium chloride (saline), sodium chloride] | 10.1 | –
